Legend:
Type in all cases: in vivo, Wistar rats
right sciatic nerve = test: Laser Doppler Perfusion Imaging of blood perfusion of a peripheral nerve, prevention study (Example 1); conditions: diabetic rats, 75 μg EGF/ml, two months
Experimental: (§1) Male Wistar, with 200-250 grams of body weight, received a subcutaneous injection of streptozotocin, at 75 mg/kg in sodium citrate buffer. Water was then replaced by a 10% sucrose solution during the next 24 h, to prevent deaths caused by hypoglycemia. Glucose levels in blood were monitored every morning during the next 72 hours after the injection. Only animals with sustained glucose values above 15 mmol/L were used. Rats were housing at 4 per cage and fed in the conventional way. A concurrent group of other 80 rats received citrate buffer without streptozotocin and was handled in a similar fashion to the diabetic group. The average value for glycemia during the 72 hours in this group was 5.87 mmol/L.
(§2) All treatments were conducted during 8 weeks, starting one week after streptozotocin injection. The composition used contained 75 μg of human recombinant EGF/ml. Several types of observations were conducted in the animals under study:
The right sciatic nerve of rats was used as a model. Ten animals were included for each one of the experimental groups. A similar number of non diabetic rats were used to calculate the reference values. A Laser Doppler Perfusion Imaging (LDPI) system was used. Data of perfusion in peripheral tissues to the nerve were programmed as zero values. Control animals received saline during two months before the measurement. […]

diabetic rats [1] = test: Nociceptive threshold (NCT) pain test, prevention of diabetic neuropathy (Example 1); conditions: 75 μg EGF/ml
Experimental: as §1, with “group.” for “group. The average value for glycemia during the 72 hours in this group was 5.87 mmol/L.”
as §2
The pain test, by application of an increasing pressure in the tail, was carried out at days 28 and 56 after initiation of the treatment, using 10 animals per each one of the experimental groups. NCT, expressed in grams, was determined by using an Ugo Basile type analgesimeter to apply a gradually increasing pressure to the tail of the animals until they developed a withdrawal reflex. In human diabetic neuropathy the nociceptive threshold is reduced.

[2] = system: Redox state in fragments from the sciatic nerve; test: Redox profile in fragments from the sciatic nerve, prevention study (Example 1)
Experimental: as §1, §2
Once the treatment was concluded, animals were sacrificed at day 70 after induction of diabetes, 10 days after the last dose was given, and the analysis described above is was completed. Animals were sacrificed by an overdose of anesthesia and perfused with saline buffer pH 7.4. A total of ten animals per experimental group were included for histomorphometric studies, and an equivalent number of rats were used for biochemical determinations. In both systems the sciatic nerves from both limbs were dissected; fragments were kept at −70° C. until processed. The samples taken for histological and/or histomorphometric studies were stained with hematoxilin/eosin and toluidine blue. At least five fragments of the same nerve were quantitatively studied using MADIP program. The fragments were included in blocks of celloidine and gelatin, and those blocks were horizontal and transversally sliced. The following histological indicators were evaluated: • Total number of blood vessels (in epineural/perineural) in 10 microscopic fields using 10× as constant magnification in longitudinal cuts of the nerve. • Percentage of demyelinated fibers. Evaluated by averaging the values per microscopic field (×20, at least five fields). • Percentage of myelin or non-myelin fibers with lesions (dilated or distorted) per microscopic field (×20, at least five fields). • Percentage of endoneurial collagenization (moderated: 25 to 50%; severe: more than 50% of the endoneurial area in transversal slices, and at least three different sections.
Ten animals per experimental group were used to conduct biochemical determinations in the fragments of sciatic nerve collected. The biochemical parameters studied were the following:
Redox Profile: • Activity of total Superoxide Dismutase enzyme (tSOD). • Activity of catalase enzyme. • Intra-axonal accumulation of total hydroperoxides (HPT). • Intra-axonal accumulation of malonyldialdehyde (MDA).

diabetic rats [3] = test: Sensory conduction velocity, reversion study (Example 2); conditions: established diabetic neuropathy, 100 μg EGF in 1 ml i.p. 3 days a week for one month, day 120 after induction of diabetes
Experimental: Distal supra-maximal stimulation in the sciatic-tibial route using bipolar electrodes is was used to study motor conduction. Determination of the conduction velocity in the sensory routes was carried out by applying a stimulus at a proximal point in the tail and measure it 3 cm away.
(§3) The aim of this study was to evaluate the neurorestoration effect of the pharmaceutical composition. Male Wistar rats between 200-250 grams of body is weight received a subcutaneous injection of streptozotocin at 75 mg/kg in sodium citrate buffer, and were allowed to evolve until 120 days after disease induction. All rats used in this experiment had shown sustained glucose levels above 15 mmol/L. Animals were handled and fed as previously described. A concurrent control group was set, where animals received saline instead of streptozotocin. […] After this period an electrophysiological characterization of all rats were done and animals were split in two random treatment groups:
(§4) Group II. Animals received the pharmaceutical composition with 100 μg of EGF in 1 ml, 3 days a week, by intraperitoneal route.
To check the effect of the pharmaceutical composition on the restoration of sensory and motor fibers the conduction velocity of an electric impulse was measured at day 120 after induction of diabetes, after treating the animals with the pharmaceutical composition or saline. […]

Lipoprotein Lipase (LPL) = test: Lipoprotein lipase (LPL) enzymatic activity in sciatic nerve fragments, reversion study (Example 2); conditions: established diabetic neuropathy, 100 μg EGF in 1 ml i.p. 3 days a week for one month
Experimental: Fragments of the nerve from each animal were incubated together with 3 μg/ml heparin in Krebs-Ringer buffer at 37° C. for 50 minutes. Aliquots from these samples were then incubated in the presence of [^14C] triolein-phosphatidylcholine. ^14C labeled fatty acids were quantified by the classic methods. LPL activity was expressed in nanomoles of released fatty acids (RFA) per minute and gram of tissue.
as §3, §4
The aim of this study was to compare the LPL enzymatic activity after one month of treatment with EGF containing composition, as compared to saline treated diabetic animals. […]

[4] = Treatment group 1 (once weekly i.p., 8 weeks)
[5] = Treatment group 3 (three times a week i.p., 8 weeks)

EGF containing pharmaceutical composition: Composition with human recombinant EGF: 75 μg/ml in Example 1, 100 μg in 1 ml in Example 2, given intraperitoneally
Laser Doppler perfusion of the sciatic nerve (right sciatic nerve; 1 ml i.p. once weekly (Treatment group 1)): 653.4 ± 41.9 LDPI Units | Laser Doppler perfusion of the sciatic nerve (right sciatic nerve; 1 ml i.p. three times a week (Treatment group 3)): 988.7 ± 80.3 LDPI Units | NCT (diabetic rats [1]; 1 ml i.p. once weekly (Treatment group 1), day 28): 125 ± 18 grams | NCT (diabetic rats [1]; 1 ml i.p. three times a week (Treatment group 3), day 28): 123 ± 16 grams | NCT (diabetic rats [1]; 1 ml i.p. three times a week (Treatment group 3), day 56): 121 ± 22 grams | Catalase activity [2, 4]: 274.60 ± 52.3 units per milligram, of protein per minute | HPT (total hydroperoxides) [2, 4]: 143.05 ± 1.98 nmol/mg of protein | MDA (malonyldialdehyde) [2, 4]: 0.24 ± 0.04 nmol/mg of protein | tSOD (total Superoxide Dismutase activity) [2, 4]: 958.17 ± 244.61 units per milligram, of protein per minute | Catalase activity [2, 5]: 37.62 ± 8.13 units per milligram, of protein per minute | HPT (total hydroperoxides) [2, 5]: 25.15 ± 1.81 nmol/mg of protein | MDA (malonyldialdehyde) [2, 5]: 0.08 ± 0.02 nmol/mg of protein | tSOD (total Superoxide Dismutase activity) [2, 5]: 2102.83 ± 112.67 units per milligram, of protein per minute | Velocity (sensitive conduction velocity, SCV) (diabetic rats [3]): 59.42 ± 3.35 m/s | LPL activity in the sciatic nerve (Lipoprotein Lipase (LPL)): 6.29 ± 1.67 nmoles AGL/min/g

Reference: US9034826B2, “Use of epidermal growth factor for the morphofunctional restoration of peripheral nerves in diabetic neuropathy” (Centro de Ingenieria Genetica y Biotecnologia, priority 2006, dated 2015)
